ChEMBL document CHEMBL5523751, “Discovery of Novel Diaryl-Substituted Fused Heterocycles Targeting Katanin and Tubulin with Potent Antitumor and Antimultidrug Resistance Efficacy” (J Med Chem, 2024)
The source made the active and inactive calls. The calls are words filed in the database; no cut-off is given here.

Key:
[1] = Acute toxicity in ICR mouse assessed as animal death at 150 mg/kg, ip measured after 3 to 14 days; type: organism-based; details: in vivo, time 3-14 day
MCF7 [2] = test: Induction of apoptosis in human MCF7 cells assessed as viable cells at 10 nM measured after 48 hrs by annexin-FITC and propidium iodide staining based flow cytometry analysis (reference value: 94.69%); type: functional; details: read-out: Activity
MCF7 [3] = test: Induction of apoptosis in human MCF7 cells measured after 48 hrs by annexin-FITC and propidium iodide staining based flow cytometry analysis; type: functional, cell-based; details: dose 10-40 nM
HUVEC = test: Anti-angiogenesis activity in human HUVEC cells assessed as disruption of capillary tube formation at 30 nM incubated for 6 hrs by inverted microscopic analysis; type: functional, cell-based
MDA-MB-231 [4] = test: Downregulation of MMP-9 expression in human MDA-MB-231 cells at 5 to 40 nM by Western blot analysis; type: functional, cell-based; details: dose 5-40 nM
HCT-116 = test: Antiproliferative activity against human HCT-116 cells assessed as inhibition of cell growth measured after 48 hrs by MTT assay; type: functional, cell-based; details: HCT-116, 48 h
A549 = test: Antiproliferative activity against human A549 assessed as inhibition of cell growth measured after 48 hrs by MTT assay; type: functional, cell-based; details: A549, 48 h
[5] = Acute toxicity in ICR mouse assessed as survival rate at 50 mg/kg, ip measured after 14 days relative to control; type: organism-based; details: in vivo, time 14 day
MCF7 [6] = test: Induction of apoptosis in human MCF7 cells assessed as early apoptotic cells at 40 nM measured after 48 hrs by annexin-FITC and propidium iodide staining based flow cytometry analysis (reference value: 1.20%); type: functional
DU-145 = test: Antiproliferative activity against human DU-145 assessed as inhibition of cell growth measured after 48 hrs by MTT assay; type: functional, cell-based; details: DU-145, 48 h
[7] = Toxicity in Balb/C nude mouse xenografted with A549/Taxol assessed as effect on body weight at 15 mg/kg, ip measured after 14 days by H and E staining based analysis; type: organism-based, A549/TR; details: in vivo, 336 h, time 14 day
A549/TR [8] = test: Antiproliferative activity against paclitaxel resistant human A549/Taxol cells assessed as inhibition of cell growth measured after 48 hrs by MTT assay; type: functional, cell-based
A549/TR [9] = test: Antitumor activity against paclitaxel resistant human A549/Taxol cells xenografted in BALB/c nude mouse model assessed as inhibition of tumor growth at 15 mg/kg, ip measured after 14 days relative to control; type: functional; set-up: scale not given: the % may be the effect or the level left; details: time 14 day
MDA-MB-468 = test: Antiproliferative activity against human MDA-MB-468 cells assessed as inhibition of cell growth measured after 48 hrs by MTT assay; type: functional, cell-based; details: MDA-MB-468, 48 h
[10] = Toxicity in Balb/C nude mouse xenografted with A549/Taxol assessed as effect on liver at 15 mg/kg, ip measured after 14 days by H and E staining based analysis; type: organism-based, A549/TR; details: in vivo, 336 h, time 14 day
MCF7 [11] = test: Induction of apoptosis in human MCF7 cells assessed as necrotic cells at 20 nM measured after 48 hrs by annexin-FITC and propidium iodide staining based flow cytometry analysis (reference value: 0.18%); type: functional
MCF7 [12] = test: Induction of apoptosis in human MCF7 cells assessed as late apoptotic cells at 40 nM measured after 48 hrs by annexin-FITC and propidium iodide staining based flow cytometry analysis (reference value: 3.93%); type: functional
MDA-MB-231 [13] = test: Antiproliferative activity against human MDA-MB-231 cells assessed as inhibition of cell growth measured after 48 hrs by MTT assay; type: functional, cell-based; details: MDA-MB-231, 48 h
HeLa = test: Antiproliferative activity against human HeLa assessed as inhibition of cell growth measured after 48 hrs by MTT assay; type: functional, cell-based
Tubulin (Homo sapiens) = Tubulin (Homo sapiens) (UniProt P68371+Q9H4B7+P0DPH7+P68366+Q13509+Q71U36+P04350+Q3ZCM7+P07437+P68363+Q9BQE3+Q6PEY2+Q13885+Q9BVA1+Q9BUF5); test: Inhibition of microtubule assembly in human MCF7 cells assessed as decrease in density at 1 to 10 nM incubated for 24 hrs by immunofluorescence assay; type: cell-based; details: dose 1-10 nM
[14] = Toxicity in Balb/C nude mouse assessed as drug tolerance at 15 mg/kg, ip measured upto 2 weeks; type: organism-based; details: in vivo, 336 h
MDA-MB-231 [15] = test: Inhibition of cell migration in human MDA-MB-231 cells assessed as reduction in number of cell migrated at 10 to 40 nM incubated for 24 hrs by crystal violet staining based analysis; type: functional; details: dose 10-40 nM
[16] = MRT (0 to t) in mouse at 3 mg/kg, iv measured upto 24 hrs by LC-MS/MS analysis; type: ADME, organism-based; details: in vivo
[17] = MRT (0 to infinity) in mouse at 3 mg/kg, iv measured upto 24 hrs by LC-MS/MS analysis; type: ADME, organism-based; details: in vivo
[18] = AUC (0 to t) in mouse at 3 mg/kg, iv measured upto 24 hrs by LC-MS/MS analysis; type: ADME, organism-based; details: in vivo
[19] = Toxicity in Balb/C nude mouse xenografted with A549/Taxol assessed as effect on white blood cells count at 15 mg/kg, ip measured after 14 days by biochemical assay; type: organism-based, A549/TR; details: in vivo, 336 h, time 14 day
MGC-803 = test: Antiproliferative activity against human MGC-803 assessed as inhibition of cell growth measured after 48 hrs by MTT assay; type: functional, cell-based; details: MGC-803, 48 h
[20] = Toxicity in Balb/C nude mouse assessed as abnormalities in liver at 7.5 to 15 mg/kg, ip measured after 14 days by H and E staining based analysis; type: organism-based; details: in vivo, 336 h, dose 7.5-15 mg/kg, time 14 day

In the case of `COc1cc(-n2cnc3ccc(-c4ccc(C)c(N)c4)nc32)cc(OC)c1OC`, the Activity [1] is reported as “Non-Toxic”, the viability at 0.01 µM (MCF7 [2]) is reported as 53.3% and the Activity (MCF7 [3]) is reported as “Dose-Dependent Effect”. The Activity (HUVEC) was “Active”, the Activity (MDA-MB-231 [4]) was “Active” and the IC50 (HCT-116) was 3 nM. The IC50 (A549) was 1 nM, the survival at 336 h [5] was 100% and the Activity (MCF7 [6]) was 32.55%. The IC50 (DU-145) was 4 nM, the Activity [7] was “Non-Toxic” and the IC50 (A549/TR [8]) was 1.6 nM. The Activity (A549/TR [9]) was 74%, the IC50 (MDA-MB-468) was 10 nM and the Activity [10] was “Non-Toxic”. The Activity (MCF7 [11]) was 0.62%, the Activity (MCF7 [12]) was 27.01% and the IC50 (MDA-MB-231 [13]) was 20 nM. The IC50 (HeLa) was 0.9 nM, the inhibition (Tubulin (Homo sapiens)) was “Active” and the Activity [14] was “Non-Toxic”. The inhibition (MDA-MB-231 [15]) was “Active”, the MRT last at 24 h [16] was 29.4 min and the MRT inf [17] was 31.2 min. The AUC(0-t) at 24 h [18] was 666 ng·h/mL, the Activity [19] was “Non-Toxic” and the IC50 (MGC-803) was 0.5 nM. The Activity [20] was “Non-Toxic”.
